ChEMBL document CHEMBL1123701, “Synthesis and quantitative structure-activity relationship analysis of N-triiodoallyl- and N-iodopropargylazoles. New antifungal agents” (1987)
Converted amounts (≈) assume the structure as drawn.

Tests used:
Trichophyton benhamiae = assay: Antifungal activity towards Trichophyton mentagrophytes 530324 strain; type: functional, Arthroderma benhamiae
Candida albicans = assay: Antifungal activity against Candida albicans C-A-24 strain; type: functional
Cryptococcus neoformans = assay: Antifungal activity against Cryptococcus neoformans Cr-1 strain; type: functional
Aspergillus fumigatus = assay: Antifungal activity against Aspergillus fumigatus Saito strain; type: functional
[1] = tested on: Trichophyton interdigitale; assay: Antifungal activity towards Trichophyton interdigitale; type: functional

| SMILES | MIC (Trichophyton benhamiae) | MIC (Candida albicans) | MIC (Cryptococcus neoformans) | MIC (Aspergillus fumigatus) | MIC [1] |
| --- | --- | --- | --- | --- | --- |
| IC#CCn1ncnn1 | 0.78 µg/mL (≈ 3.33 µM) | 1.56 µg/mL (≈ 6.67 µM) | 0.39 µg/mL (≈ 1.67 µM) | 0.39 µg/mL (≈ 1.67 µM) | 0.78 µg/mL (≈ 3.33 µM) |
| CC(C)Cc1nnn(CC#CI)n1 | 0.39 µg/mL (≈ 1.34 µM) | 3.13 µg/mL (≈ 10.8 µM) | 3.13 µg/mL (≈ 10.8 µM) | 0.78 µg/mL (≈ 2.69 µM) | 0.39 µg/mL (≈ 1.34 µM) |
| COc1ccc(-c2nnnn2CC#CI)cc1 | 0.1 µg/mL (≈ 0.294 µM) | 25 µg/mL (≈ 73.5 µM) | 25 µg/mL (≈ 73.5 µM) | 0.78 µg/mL (≈ 2.29 µM) | 0.2 µg/mL (≈ 0.588 µM) |
| CC(C)c1nnn(CC(I)=C(I)I)n1 | 0.78 µg/mL (≈ 1.47 µM) | 6.25 µg/mL (≈ 11.8 µM) | – | – | – |
| Oc1ccc(-c2nnn(CC#CI)n2)cc1 | 0.2 µg/mL (≈ 0.613 µM) | 6.25 µg/mL (≈ 19.2 µM) | 12.5 µg/mL (≈ 38.3 µM) | 0.39 µg/mL (≈ 1.2 µM) | 0.1 µg/mL (≈ 0.307 µM) |
| CN(C)c1ccc(-c2nnn(CC#CI)n2)cc1 | 0.78 µg/mL (≈ 2.21 µM) | 50 µg/mL (≈ 142 µM) | 50 µg/mL (≈ 142 µM) | 50 µg/mL (≈ 142 µM) | 0.78 µg/mL (≈ 2.21 µM) |
| CC(C)Cc1nnnn1CC#CI | 1.56 µg/mL (≈ 5.38 µM) | 12.5 µg/mL (≈ 43.1 µM) | 6.25 µg/mL (≈ 21.5 µM) | 3.13 µg/mL (≈ 10.8 µM) | 1.56 µg/mL (≈ 5.38 µM) |
| Cc1nnn(CC(I)=C(I)I)n1 | 0.2 µg/mL (≈ 0.399 µM) | 0.78 µg/mL (≈ 1.55 µM) | – | 0.39 µg/mL (≈ 0.777 µM) | 0.2 µg/mL (≈ 0.399 µM) |
| CC(C)(C)c1nnn(CC#CI)n1 | 0.78 µg/mL (≈ 2.69 µM) | 3.13 µg/mL (≈ 10.8 µM) | 25 µg/mL (≈ 86.2 µM) | 1.56 µg/mL (≈ 5.38 µM) | 0.78 µg/mL (≈ 2.69 µM) |
| Cc1nnnn1CC(I)=C(I)I | 0.78 µg/mL (≈ 1.55 µM) | 3.13 µg/mL (≈ 6.24 µM) | – | – | – |
| CCCCCCCc1nnnn1CC(I)=C(I)I | 0.1 µg/mL (≈ 0.171 µM) | > 25 µg/mL | > 25 µg/mL | – | 0.1 µg/mL (≈ 0.171 µM) |
| CCCCCc1nnnn1CC(I)=C(I)I | 0.1 µg/mL (≈ 0.179 µM) | – | > 25 µg/mL | – | 0.1 µg/mL (≈ 0.179 µM) |
| CCCCCCCc1nnn(CC#CI)n1 | 0.1 µg/mL (≈ 0.301 µM) | 12.5 µg/mL (≈ 37.6 µM) | 6.25 µg/mL (≈ 18.8 µM) | 0.78 µg/mL (≈ 2.35 µM) | 0.1 µg/mL (≈ 0.301 µM) |
| Clc1ccc(-c2nnnn2CC#CI)cc1 | 0.2 µg/mL (≈ 0.58 µM) | 1.56 µg/mL (≈ 4.53 µM) | – | 0.39 µg/mL (≈ 1.13 µM) | 0.39 µg/mL (≈ 1.13 µM) |
| Cc1nccn1CC(I)=C(I)I | 6.25 µg/mL (≈ 12.5 µM) | 12.5 µg/mL (≈ 25 µM) | 25 µg/mL (≈ 50 µM) | 6.25 µg/mL (≈ 12.5 µM) | 3.13 µg/mL (≈ 6.26 µM) |
| IC#CCn1nnc(Cc2ccccc2)n1 | 0.1 µg/mL (≈ 0.309 µM) | 6.25 µg/mL (≈ 19.3 µM) | 6.25 µg/mL (≈ 19.3 µM) | 0.78 µg/mL (≈ 2.41 µM) | 0.1 µg/mL (≈ 0.309 µM) |
| O=[N+]([O-])c1cn(CC(I)=C(I)I)c(Cl)c1Cl | 0.2 µg/mL (≈ 0.334 µM) | 0.39 µg/mL (≈ 0.651 µM) | 0.2 µg/mL (≈ 0.334 µM) | 0.2 µg/mL (≈ 0.334 µM) | – |
| O=[N+]([O-])c1ccc(-c2nnn(CC(I)=C(I)I)n2)cc1 | > 100 µg/mL | > 100 µg/mL | > 100 µg/mL | > 100 µg/mL | > 100 µg/mL |

| SMILES | MIC (Trichophyton benhamiae) | MIC (Candida albicans) | MIC (Cryptococcus neoformans) | MIC (Aspergillus fumigatus) | MIC [1] |
| --- | --- | --- | --- | --- | --- |
| O=[N+]([O-])c1cccn1CC(I)=C(I)I | 0.2 µg/mL (≈ 0.377 µM) | 0.39 µg/mL (≈ 0.736 µM) | 6.25 µg/mL (≈ 11.8 µM) | 0.39 µg/mL (≈ 0.736 µM) | 0.1 µg/mL (≈ 0.189 µM) |
| IC#CCn1nnnc1Cc1ccccc1 | 0.78 µg/mL (≈ 2.41 µM) | 12.5 µg/mL (≈ 38.6 µM) | 12.5 µg/mL (≈ 38.6 µM) | 1.56 µg/mL (≈ 4.81 µM) | 0.39 µg/mL (≈ 1.2 µM) |
| IC#CCn1nnnc1C1CC1 | 1.56 µg/mL (≈ 5.69 µM) | 12.5 µg/mL (≈ 45.6 µM) | 12.5 µg/mL (≈ 45.6 µM) | 3.13 µg/mL (≈ 11.4 µM) | 3.13 µg/mL (≈ 11.4 µM) |
| Cc1ccc(-c2nnn(CC#CI)n2)cc1 | 0.2 µg/mL (≈ 0.617 µM) | – | – | – | – |
| IC(I)=C(I)Cn1nnc(-c2ccccc2)n1 | 1.56 µg/mL (≈ 2.77 µM) | 12.5 µg/mL (≈ 22.2 µM) | – | – | 3.13 µg/mL (≈ 5.55 µM) |
| COC(=O)c1cc([N+](=O)[O-])cn1CC(I)=C(I)I | 0.39 µg/mL (≈ 0.663 µM) | 3.13 µg/mL (≈ 5.32 µM) | 3.13 µg/mL (≈ 5.32 µM) | 1.56 µg/mL (≈ 2.65 µM) | 0.39 µg/mL (≈ 0.663 µM) |
| IC#CCn1cnnn1 | 1.56 µg/mL (≈ 6.67 µM) | 3.13 µg/mL (≈ 13.4 µM) | 0.78 µg/mL (≈ 3.33 µM) | 1.56 µg/mL (≈ 6.67 µM) | 1.56 µg/mL (≈ 6.67 µM) |
| Clc1ccccc1-c1nnn(CC#CI)n1 | 0.1 µg/mL (≈ 0.29 µM) | 1.56 µg/mL (≈ 4.53 µM) | 1.56 µg/mL (≈ 4.53 µM) | 0.78 µg/mL (≈ 2.26 µM) | 0.1 µg/mL (≈ 0.29 µM) |
| IC(I)=C(I)Cn1nnc(C2CC2)n1 | 0.2 µg/mL (≈ 0.379 µM) | 3.13 µg/mL (≈ 5.93 µM) | 3.13 µg/mL (≈ 5.93 µM) | 0.39 µg/mL (≈ 0.739 µM) | 0.2 µg/mL (≈ 0.379 µM) |
| IC(I)=C(I)Cn1cnnn1 | 0.39 µg/mL (≈ 0.799 µM) | 3.13 µg/mL (≈ 6.42 µM) | 3.13 µg/mL (≈ 6.42 µM) | – | – |
| CCOCCc1nnnn1CC(I)=C(I)I | 0.1 µg/mL (≈ 0.179 µM) | 6.25 µg/mL (≈ 11.2 µM) | 6.25 µg/mL (≈ 11.2 µM) | 3.13 µg/mL (≈ 5.59 µM) | 1.56 µg/mL (≈ 2.79 µM) |
| O=[N+]([O-])c1ccn(CC(I)=C(I)I)c1 | 0.2 µg/mL (≈ 0.377 µM) | 0.2 µg/mL (≈ 0.377 µM) | – | 0.2 µg/mL (≈ 0.377 µM) | – |
| IC(I)=C(I)Cn1ccnc1 | 1.56 µg/mL (≈ 3.21 µM) | 1.56 µg/mL (≈ 3.21 µM) | – | 1.56 µg/mL (≈ 3.21 µM) | 3.13 µg/mL (≈ 6.44 µM) |
| O=[N+]([O-])c1nccn1CC(I)=C(I)I | 0.78 µg/mL (≈ 1.47 µM) | 0.78 µg/mL (≈ 1.47 µM) | – | – | – |
| O=[N+]([O-])c1cn(CC(I)=C(I)I)cn1 | 0.78 µg/mL (≈ 1.47 µM) | 3.13 µg/mL (≈ 5.9 µM) | 6.25 µg/mL (≈ 11.8 µM) | 0.39 µg/mL (≈ 0.735 µM) | 0.39 µg/mL (≈ 0.735 µM) |
| COC(=O)c1cccn1CC#CI | 1.56 µg/mL (≈ 5.4 µM) | 3.13 µg/mL (≈ 10.8 µM) | 6.25 µg/mL (≈ 21.6 µM) | 1.56 µg/mL (≈ 5.4 µM) | 1.56 µg/mL (≈ 5.4 µM) |
| IC(I)=C(I)Cn1ncnn1 | 0.1 µg/mL (≈ 0.205 µM) | 0.2 µg/mL (≈ 0.41 µM) | – | 0.2 µg/mL (≈ 0.41 µM) | 0.1 µg/mL (≈ 0.205 µM) |
| IC(I)=C(I)Cn1ccnn1 | 0.39 µg/mL (≈ 0.801 µM) | 3.13 µg/mL (≈ 6.43 µM) | 6.25 µg/mL (≈ 12.8 µM) | 0.78 µg/mL (≈ 1.6 µM) | 0.78 µg/mL (≈ 1.6 µM) |
